Data set [1] addresses recombinant human Estrogen Receptor alpha ligand binding domain (ER alpha-LBD (GST)) (Homo sapiens (Human), UniProt P03372). Kind of data set: ERα binding assay (LanthaScreen TR-FRET competition).
Method: The ability of compounds to bind to isolated Estrogen Receptor Alpha Ligand binding domain (ER alpha—LBD (GST)) was assessed in competition assays using a LanthaScreen Time-Resolved Fluorescence Resonance Energy Transfer (TR-FRET) detection end-point. For the LanthaScreen TR-FRET endpoint, a suitable fluorophore (Fluormone ES2, ThermoFisher, Product code P2645) and recombinant human Estrogen Receptor alpha ligand binding domain, residues 307-554 (expressed and purified in-house) were used to measure compound binding. The assay principle is that ER alpha-LBD (GST) is added to a fluorescent ligand to form a receptor/fluorophore complex. A terbium-labelled anti-GST antibody (Product code PV3551) is used to indirectly label the receptor by binding to its GST tag, and competitive binding is detected by a test compound's ability to displace the fluorescent ligand, resulting in a loss of TR-FRET signal between the Tb-anti-GST antibody and the tracer. The assay was performed as follows with all reagent additions carried out using the Beckman Coulter BioRAPTR FRD microfluidic workstation: • 1. Acoustic dispense 120 nL of the test compound into a black low volume 384 well assay plates. • 2. Prepare 1× ER alpha-LBD/Tb-antiGST Ab in ES2 screening buffer and incubate for 15 minutes. • 3. […] Cover the assay plate to protect the reagents from light and evaporation, and incubate at room temperature for 4 hours. • 5. Excite at 337 nm and measure the fluorescent emission signal of each well at 490 nm and 520 nm using the BMG PheraSTAR.
TR-FRET dose response data obtained with each compound was exported into a suitable software package (such as Origin or Genedata) to perform curve fitting analysis. Competitive ER alpha binding was expressed as an IC50 value.
In data set [2] the target is Estrogen Receptor (ERα) in MCF-7 cells (Homo sapiens (Human), UniProt P03372). Kind of data set: MCF-7 ER down-regulation assay (immuno-fluorescence). Format: cell-based. Particulars: for % downregulation (in brackets): maximum downregulation.
Data set [3] can be described thus: Log D (shake flask, 1-octanol/aqueous buffer). Format: physicochemical.
Data set [4] in a line: Thermodynamic solubility (shake-flask). It counts as physicochemical. The settings on record: thermodynamic from solid, phosphate buffer pH 7.4, 24 hours.
Data set [5] can be described thus: Human plasma protein binding (equilibrium dialysis). It counts as in vitro ADME.
Another data set has as its target hERG potassium channel (Homo sapiens (Human), UniProt Q12809).
Where [6] appears, read: 1-octanol/aqueous buffer, pH 7.4, pH 7.4.
[7] abbreviates: aqueous phosphate buffer, 25 °C, pH 7.4, aqueous buffer.

Values after ≈ are worked out from the molar mass of the structure shown. A value given as a limit tells only on which side of the number the result lay.

Sequence of Estrogen Receptor (ERα) in MCF-7 cells (P03372 whole entry): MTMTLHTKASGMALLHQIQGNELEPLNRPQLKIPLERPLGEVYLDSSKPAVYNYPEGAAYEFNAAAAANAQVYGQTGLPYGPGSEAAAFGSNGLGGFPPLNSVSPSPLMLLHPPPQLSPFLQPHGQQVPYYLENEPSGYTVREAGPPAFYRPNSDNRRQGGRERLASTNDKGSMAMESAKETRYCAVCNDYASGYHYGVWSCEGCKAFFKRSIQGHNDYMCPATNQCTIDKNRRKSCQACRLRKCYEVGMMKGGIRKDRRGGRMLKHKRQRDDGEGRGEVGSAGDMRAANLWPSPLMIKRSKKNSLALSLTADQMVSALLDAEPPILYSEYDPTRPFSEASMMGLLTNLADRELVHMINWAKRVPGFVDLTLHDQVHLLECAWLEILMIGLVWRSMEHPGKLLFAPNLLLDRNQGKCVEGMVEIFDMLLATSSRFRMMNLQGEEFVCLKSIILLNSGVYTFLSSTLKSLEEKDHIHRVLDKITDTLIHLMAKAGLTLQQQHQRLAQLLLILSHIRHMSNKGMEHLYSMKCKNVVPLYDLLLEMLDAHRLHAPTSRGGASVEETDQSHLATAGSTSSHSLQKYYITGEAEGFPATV
Sequence of recombinant human Estrogen Receptor alpha ligand binding domain (ER alpha-LBD (GST)) (P03372 307-554): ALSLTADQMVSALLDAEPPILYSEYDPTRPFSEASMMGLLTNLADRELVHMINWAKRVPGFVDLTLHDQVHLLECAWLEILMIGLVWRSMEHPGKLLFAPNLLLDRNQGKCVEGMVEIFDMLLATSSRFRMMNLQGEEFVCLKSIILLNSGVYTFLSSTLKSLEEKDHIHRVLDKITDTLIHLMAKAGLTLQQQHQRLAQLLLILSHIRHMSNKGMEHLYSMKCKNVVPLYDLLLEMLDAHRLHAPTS
Sequence of hERG potassium channel (Q12809 whole entry): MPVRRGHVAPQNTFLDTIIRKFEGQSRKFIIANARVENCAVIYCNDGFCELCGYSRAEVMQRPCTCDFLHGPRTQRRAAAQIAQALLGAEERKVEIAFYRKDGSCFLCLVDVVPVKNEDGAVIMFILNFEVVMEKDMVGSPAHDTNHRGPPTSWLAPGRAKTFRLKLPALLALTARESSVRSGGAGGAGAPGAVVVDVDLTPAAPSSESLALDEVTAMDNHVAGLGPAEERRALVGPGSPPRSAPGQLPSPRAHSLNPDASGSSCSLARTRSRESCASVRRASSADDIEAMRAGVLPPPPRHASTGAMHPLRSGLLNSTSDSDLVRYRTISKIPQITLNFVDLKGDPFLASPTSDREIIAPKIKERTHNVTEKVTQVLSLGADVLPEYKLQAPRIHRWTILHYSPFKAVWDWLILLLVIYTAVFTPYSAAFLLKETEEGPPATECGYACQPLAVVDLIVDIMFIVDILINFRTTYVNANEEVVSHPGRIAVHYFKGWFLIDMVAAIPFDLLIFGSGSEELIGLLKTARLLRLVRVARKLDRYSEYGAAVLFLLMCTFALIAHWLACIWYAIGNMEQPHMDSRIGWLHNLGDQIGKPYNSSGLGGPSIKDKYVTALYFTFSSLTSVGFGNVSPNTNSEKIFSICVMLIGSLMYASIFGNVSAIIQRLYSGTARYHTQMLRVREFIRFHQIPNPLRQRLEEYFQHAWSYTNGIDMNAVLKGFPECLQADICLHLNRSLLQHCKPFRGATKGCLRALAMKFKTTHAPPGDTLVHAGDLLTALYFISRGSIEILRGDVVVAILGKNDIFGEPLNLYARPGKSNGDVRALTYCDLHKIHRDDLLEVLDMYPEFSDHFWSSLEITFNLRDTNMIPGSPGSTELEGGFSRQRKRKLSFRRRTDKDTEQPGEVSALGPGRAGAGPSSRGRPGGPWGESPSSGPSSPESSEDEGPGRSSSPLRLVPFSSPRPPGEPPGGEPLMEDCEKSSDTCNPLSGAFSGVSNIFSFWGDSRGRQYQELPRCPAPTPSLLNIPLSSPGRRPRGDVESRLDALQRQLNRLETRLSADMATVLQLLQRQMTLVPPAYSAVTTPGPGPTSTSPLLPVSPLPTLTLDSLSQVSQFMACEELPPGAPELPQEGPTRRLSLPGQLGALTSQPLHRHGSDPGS

Regarding `C[C@@H]1Cc2c([nH]c3ccccc23)[C@@H](c2cccc(OCCNCCCF)n2)N1CC(F)(F)F` [Example 34, 3-fluoro-N-(2-((6-((1S,3R)-3-methyl-2-(2,2,2-trifluoroethyl)-2,3,4,9-tetrahydro-1H-pyrido[3,4-b]indol-1-yl)pyridin-2-yl)oxy)ethyl)propan-1-amine], the values for the IC50 (in data set [1]; against hERG potassium channel) were 190 nM and 3400 nM, respectively. For the same molecule, the “% downregulation (in brackets)” value in data set [2] is on record as “— (41%)”. The same molecule returned a logD in data set [3] (setting [6]) of 3.7. This molecule also showed a solubility at 24 h in data set [4] (setting [7]) of 151 µM (≈ 70.1 µg/mL). Also, the “Human plasma protein binding (% free)” value in data set [5] amounted to 2.2 % free.

On to `COc1ncc(OCCNCCCF)cc1[C@@H]1c2[nH]c3ccccc3c2C[C@@H](C)N1CC(F)(F)F` [Example 36, 3-fluoro-N-(2-((6-methoxy-5-((1R,3R)-3-methyl-2-(2,2,2-trifluoroethyl)-2,3,4,9-tetrahydro-1H-pyrido[3,4-b]indol-1-yl)pyridin-3-yl)oxy)ethyl)propan-1-amine], for which the results for the IC50 (in data set [1]; in data set [2]; at hERG potassium channel) were 2.6 nM, 0.35 nM and 8700 nM, respectively. In addition, the pH-dependent lipophilicity (logD) in data set [3] (setting [6]) was 3.5. This molecule gave a solubility at 24 h in data set [4] (setting [7]) of 183 µM (≈ 90.5 µg/mL). Moreover, the “Human plasma protein binding (% free)” value in data set [5] is on record as 2 % free.

As for `Cc1ncc(OCCNCCCF)cc1[C@@H]1c2[nH]c3ccccc3c2C[C@@H](C)N1CC(F)(F)F` [Example 37, 3-fluoro-N-(2-((6-methyl-5-((1R,3R)-3-methyl-2-(2,2,2-trifluoroethyl)-2,3,4,9-tetrahydro-1H-pyrido[3,4-b]indol-1-yl)pyridin-3-yl)oxy)ethyl)propan-1-amine], the figures for the IC50 (in data set [1]; in data set [2]; against hERG potassium channel) were 12 nM, 35 nM and 3500 nM, respectively. Also, the logD in data set [3] (setting [6]) was 3.6. The molecule further registered a solubility at 24 h in data set [4] (setting [7]) of 434 µM (≈ 208 µg/mL). The “Human plasma protein binding (% free)” value in data set [5] is 2.3 % free.

As for `COc1ncc(NCCNCCCF)cc1[C@@H]1c2[nH]c3ccccc3c2C[C@@H](C)N1CC(F)(F)F` [Example 41, N1-(3-fluoropropyl)-N2-(6-methoxy-5-((1R,3R)-3-methyl-2-(2,2,2-trifluoroethyl)-2,3,4,9-tetrahydro-1H-pyrido[3,4-b]indol-1-yl)pyridin-3-yl)ethane-1,2-diamine], the values for the IC50 (in data set [1]; in data set [2]; against hERG potassium channel) were 12 nM, 6 nM and 4900 nM, respectively. This molecule showed a logD in data set [3] (setting [6]) of 2.9. The solubility at 24 h in data set [4] (setting [7]) was found to be 242 µM (≈ 119 µg/mL). Further, the “Human plasma protein binding (% free)” value in data set [5] came to 1.8 % free.

In the case of `COc1ccc(NCCNCCCF)nc1[C@@H]1c2[nH]c3ccccc3c2C[C@@H](C)N1CC(F)(F)F` [Example 43, N1-(3-fluoropropyl)-N2-(5-methoxy-6-((1S,3R)-3-methyl-2-(2,2,2-trifluoroethyl)-2,3,4,9-tetrahydro-1H-pyrido[3,4-b]indol-1-yl)pyridin-2-yl)ethane-1,2-diamine], the results for the IC50 (in data set [1]; in data set [2]; against hERG potassium channel) were 82 nM, 220 nM and 3100 nM, respectively. Moreover, the logD in data set [3] (setting [6]) was determined as 2.2. For the same molecule, the solubility at 24 h in data set [4] (setting [7]) is 358 µM (≈ 177 µg/mL). For the same molecule, the “Human plasma protein binding (% free)” value in data set [5] is reported as 2.8 % free.

As to `COc1ccc(O[C@H](C)CNCCCF)cc1[C@@H]1c2[nH]c3ccccc3c2C[C@@H](C)N1CC(F)(F)CO` [Example 47, 2,2-difluoro-3-((1R,3R)-1-(5-(((R)-1-((3-fluoropropyl)amino)propan-2-yl)oxy)-2-methoxyphenyl)-3-methyl-1,3,4,9-tetrahydro-2H-pyrido[3,4-b]indol-2-yl)propan-1-ol], the values for the IC50 (in data set [1]; in data set [2]; on hERG potassium channel) were 2.5 nM, 11 nM and 3200 nM, respectively. The “% downregulation (in brackets)” value in data set [2] amounted to 81%. In addition, the log distribution coefficient (logD) in data set [3] (setting [6]) was 2.7. Further, the solubility at 24 h in data set [4] (setting [7]) is 488 µM (≈ 254 µg/mL). The “Human plasma protein binding (% free)” value in data set [5] is listed as 6.1 % free.

In the case of `COc1ccc(OCCNCCCF)cc1[C@@H]1c2[nH]c3ccccc3c2C[C@@H](C)N1C[C@H](C)C(=O)O` [Example 53, (S)-3-((1R,3R)-1-(5-(2-((3-fluoropropyl)amino)ethoxy)-2-methoxyphenyl)-3-methyl-1,3,4,9-tetrahydro-2H-pyrido[3,4-b]indol-2-yl)-2-methylpropanoic acid], the IC50 in data set [1] is 150 nM; at hERG potassium channel, over 40000 nM. Besides, the “% downregulation (in brackets)” value in data set [2] is “— (40%)”. In addition, the logD in data set [3] (setting [6]) amounted to 0.1. The solubility at 24 h in data set [4] (setting [7]) was over 1000 µM. Besides, the “Human plasma protein binding (% free)” value in data set [5] worked out at 80 % free.

As to `C[C@@H]1Cc2c([nH]c3ccccc23)[C@@H](c2c(Cl)ccc(OCCNCCCF)c2F)N1C[C@H](C)C(=O)O` [Example 54, (S)-3-((1R,3R)-1-(6-chloro-2-fluoro-3-(2-((3-fluoropropyl)amino)ethoxy)phenyl)-3-methyl-1,3,4,9-tetrahydro-2H-pyrido[3,4-b]indol-2-yl)-2-methylpropanoic acid], the IC50 was 5.9 nM in data set [1], 1 nM in data set [2] and over 40000 nM on hERG potassium channel. Also, the logD in data set [3] (setting [6]) worked out at 0.9. The solubility at 24 h in data set [4] (setting [7]) was over 1000 µM. Also, the “Human plasma protein binding (% free)” value in data set [5] was determined as 18 % free.

With `Cc1ccc2[nH]c3c(c2c1)C[C@@H](C)N(CC(F)(F)CO)[C@@H]3c1c(F)cnc(OCCNCCCF)c1F` [Example 66, 3-((1R,3R)-1-(3,5-difluoro-2-(2-((3-fluoropropyl)amino)ethoxy)pyridin-4-yl)-3,6-dimethyl-1,3,4,9-tetrahydro-2H-pyrido[3,4-b]indol-2-yl)-2,2-difluoropropan-1-ol], the IC50 in data set [1] is 0.71 nM; in data set [2], 0.34 nM; on hERG potassium channel, 5400 nM. Also, in data set [3] (setting [6]), the logD amounted to 3. Besides, in data set [4] (setting [7]), the solubility at 24 h was 441 µM (≈ 232 µg/mL). The “Human plasma protein binding (% free)” value in data set [5] is 1.3 % free.

Turning to `C[C@@H]1Cc2c([nH]c3ccc(F)cc23)[C@@H](c2c(F)cnc(OCCN(C)CCCF)c2F)N1CC(F)(F)CO` [Example 67, 3-((1R,3R)-1-(3,5-difluoro-2-(2-((3-fluoropropyl)(methyl)amino)ethoxy)pyridin-4-yl)-6-fluoro-3-methyl-1,3,4,9-tetrahydro-2H-pyrido[3,4-b]indol-2-yl)-2,2-difluoropropan-1-ol], the IC50 in data set [1] is 0.7 nM; in data set [2] it was 0.099 nM; against hERG potassium channel, 5700 nM. For the same molecule, in data set [3] (setting [6]), the logD is 4. In data set [4] (setting [7]), this molecule had a solubility at 24 h of 80.6 µM (≈ 43.9 µg/mL). Also, the “Human plasma protein binding (% free)” value in data set [5] is on record as 1.6 % free.

In the case of `C[C@@H]1Cc2c([nH]c3ccccc23)[C@@H](c2cccc(OCCNCCCF)c2C(F)F)N1CC(F)(F)CO` [Example 68, 3-((1R,3R)-1-(2-(difluoromethyl)-3-(2-((3-fluoropropyl)amino)ethoxy)phenyl)-3-methyl-1,3,4,9-tetrahydro-2H-pyrido[3,4-b]indol-2-yl)-2,2-difluoropropan-1-ol], the IC50 in data set [1] is 0.69 nM; in data set [2], 0.095 nM; against hERG potassium channel it was 2000 nM. In data set [3] (setting [6]), this molecule yielded a logD of 3.2. In addition, the solubility at 24 h in data set [4] (setting [7]) was 56.6 µM (≈ 29.7 µg/mL). Further, in data set [5], the “Human plasma protein binding (% free)” value is 1.2 % free.

For the molecule `C[C@@H]1Cc2c([nH]c3ccccc23)[C@@H](c2cc(OCCNCCCF)ccc2CO)N1CC(F)(F)F` [Example 70, (4-(2-((3-fluoropropyl)amino)ethoxy)-2-((1R,3R)-3-methyl-2-(2,2,2-trifluoroethyl)-2,3,4,9-tetrahydro-1H-pyrido[3,4-b]indol-1-yl)phenyl)methanol], the figures for the IC50 (in data set [1]; in data set [2]; against hERG potassium channel) were 1300 nM, 180 nM and 6300 nM, respectively. Besides, in data set [3] (setting [6]), the logD came out at 2.2. This molecule gave a solubility at 24 h in data set [4] (setting [7]) of 231 µM (≈ 114 µg/mL). Also, in data set [5], the “Human plasma protein binding (% free)” value is on record as 23 % free.

Consider `COCc1ccc(OCCNCCCF)cc1[C@@H]1c2[nH]c3ccccc3c2C[C@@H](C)N1CC(F)(F)F` [Example 71, 3-fluoro-N-(2-(4-(methoxymethyl)-3-((1R,3R)-3-methyl-2-(2,2,2-trifluoroethyl)-2,3,4,9-tetrahydro-1H-pyrido[3,4-b]indol-1-yl)phenoxy)ethyl)propan-1-amine], for which the IC50 was determined as 3.4 nM in data set [1], 2 nM in data set [2] and 5800 nM against hERG potassium channel. In addition, the “% downregulation (in brackets)” value in data set [2] came to 90%. The molecule further showed a logD in data set [3] (pH 7.4) of 3.8. This molecule came in with a solubility at 24 h in data set [4] (aqueous buffer, 25° C.) of under 1.6 µM. Moreover, the “Human plasma protein binding (% free)” value in data set [5] is given as 0.44 % free.

In the case of `C[C@@H]1Cc2c([nH]c3ccccc23)[C@@](C)(c2cccc(OCCNCCCF)c2)N1CC(F)(F)F` [Example 75, N-(2-(3-((1R,3R)-1,3-dimethyl-2-(2,2,2-trifluoroethyl)-2,3,4,9-tetrahydro-1H-pyrido[3,4-b]indol-1-yl)phenoxy)ethyl)-3-fluoropropan-1-amine], the values for the IC50 (in data set [1]; in data set [2]; against hERG potassium channel) were 52 nM, 58 nM and 7700 nM, respectively. Besides, the pH-dependent lipophilicity (logD) in data set [3] (setting [6]) turned out to be 4.5. In data set [4] (setting [7]), this molecule showed a solubility at 24 h of 0.9 µM (≈ 0.43 µg/mL). The “Human plasma protein binding (% free)” value in data set [5] was determined as 0.08 % free.

Turning to `C[C@@H]1Cc2c([nH]c3ccccc23)[C@@H](c2c(F)ccc(OCCNCCCF)c2F)N1CC1(S(C)(=O)=O)CC1` [Example 77, N-(2-(2,4-difluoro-3-((1R,3R)-3-methyl-2-((1-(methylsulfonyl)cyclopropyl)methyl)-2,3,4,9-tetrahydro-1H-pyrido[3,4-b]indol-1-yl)phenoxy)ethyl)-3-fluoropropan-1-amine], the values for the half-inhibitory concentration (IC50) (in data set [1]; in data set [2]; against hERG potassium channel) were 7.3 nM, 6.2 nM and 5400 nM, respectively. Besides, the logD in data set [3] (setting [6]) came to 2.4. The solubility at 24 h in data set [4] (setting [7]) was 410 µM (≈ 225 µg/mL). Also, the “Human plasma protein binding (% free)” value in data set [5] amounted to 5.5 % free.

(Values after patent US10221173B2, “Chemical compounds” (AstraZeneca AB, priority 2017, dated 2019).)
